# US4753928A, “Process for obtaining sexual products from mammals suitable for natural or artificial fertilization” (INNOFINANCE Altalanos Innovacios Pengintezet, priority 1985, dated 1988)
# Where a SMILES comes first, the peptide text is derived from it. [ ]: non-standard residue; d: D form. pGlu = O=C1CC[C@@H](C(=O)O)N1
# What was measured:
# barren chinchillas = assay: Treatment of chinchilla barren for prolonged time; assay type: in vivo
# Protocol: Twenty chinchillas barren for at least two years were treated twice daily for three days with 10 μg each of D-Phe^6, Gln^8 -GnRH analogue through intraperitoneal injection. On the 4th day the animals were injected with 75 μg of GnRH analogue, then they were put together with the male. 12 of the Chinchillas gave birth within 4 months. Parallel with the above treatment, 3 animals barren for more than 2 years having very valuable fur as "black" mutant chinchillas were treated twice daily for three days with 10 μg each of D-Phe^6, Gln^8 -GnRH analogue, administered through peritoneal injection. The animals were injected on the 4th day with 75 μg of GnRH analogue, then, as customary, were put together with the male.
# infant female pigs = assay: Inducing super-ovulation in infant pigs; assay type: in vivo; conditions: 10 μg twice daily 6 days i.m., 100 μg on 7th day, after 41 hours; 100-day old pigs
# Protocol: 20 100-day old infant female pigs were treated for 6 days, twice daily, with 10 μg doses each consisting of D-Phe^6 -Gln^8 -GnRH analogue administered intramuscularly. In the test half side of the ovaries in the control animals was removed and, by using the test method detailed in Example 3, the number of the Graf-follicles and of corpora lutea formed was compared. Occurrence of ovulation was detected by laparoscopy. […] Treatment of these animals produced similar results as described in Examples 1 to 3.
# female lion = assay type: in vivo
# Protocol: In our process an intact, fertile female lion belonging to a Zoo was treated, a lioness of 200 kg body weight, which has given litter five times in its life already. Treatments took place twice in every 3 weeks, using D-[…], […] -GnRH analogue. Treatment was timed in such a way that a 50 μg dose was follwed by a 500 μg dose, than a 3-week pause followed. Treatment was carried out with the already mentioned three weeks interval from commencement of oestrus (month of April) until 50 days following end of oestrus typical of the species (August).
# [1] = system: primordial follicles of infant domestic female cat; assay: Stimulating primordial follicles in infant domestic female cat; assay type: in vivo, Felis cattus domesticus; conditions: 0.1 μg i.m. three times daily for three days
# Protocol: 5 kittens of 0.3 kg weight and being 45 days old were treated with D-Phe^6, Gln^8 -GnRH analogue in such a way that under narcosis the left-side ovary was removed. Thereafter the medium was treated for three days, three times daily, with a 4-hour time interval between treatments. Treatment was carried out nine times in all and every instance a 0.1 μg dose of the analogue was used. The active ingredient was suspended in normal saline solution and propyleneglycol and it was administered intramuscularly. After treatment remaining ovaries were removed, evaluated visually, then after fixing hystological examination was performed. Visually both ovaries were butter-yellow, looked homogeneous, but the treated ovary was slightly enlarged.
# bison bull = assay: Inducing spermiogenesis of bison bull in seasonal oligospermia; assay type: in vivo; conditions: 55th day
# Source text: From bison bull belonging to Zoo and weighing 700 kg, under narcosis and by electrical means a sperm sample was obtained and it was established that it was in a seasonal oligospermial state. Symptoms of this were the following: under microscope magnifying 1500 times and used in sperm evaluation the number of sperm found was 5-20 and defective sperms reached 75-80%. The density of the ejaculate was 0.5. Sperms of this quality are unsuitable for fertilization. Thereafter, twice weekly the animal was treated intramuscularly with 200-200 μg dose each of D-phe^6, Gln^8 -GnRH analogue, using the compressed air injection method. On the 55th day following commencement of treatment, under narcosis and with a time lapse of one hour the animal was ejaculated twice. The two ejaculates were combined; their density was 4, their motility 55%. The thus-obtained sperms were deep frozen, then the decrease of motility as a result of deep freezing was checked: this was only 5%.
# female blue fox = assay: Treatment of female blue fox in seasonal unoestrus for inducing fertile oestrus; assay type: in vivo
# Protocol: Female blue fox in seasonal unoestrus was examined in December under narcosis with the aid of laparoscopy. […] Then the animal had twice daily intramuscular treatment for ten days with a 1 to 5 μg dose of D-Phe^6, Gln^8 -GnRH analogue. On the tenth day another laparoscopy was carried out under narcosis. […] Also in December a rejected female due to mammalian atrophy was similarly treated twice a day with 2 μg each of D-Phe^6, Gln^8 -GnRH analogue the effect of which was followed by looking at changes in condition of the neck of uterus. On the 6th day following first treatment, the neck of uterus opened. At this time the treatment was carried out with 50 μg of active ingredient. 16 hours later conditions of the ovaries were examined with mirroring and a state immediately prior to ovulation was found. Then abdominal cavity was entirely opened, the ovaries were removed and by puncturing ova were removed from a total of 11 Graf-follicles. Six regular, normal ova covered with corona radiata were found.
# infant female rats = assay: Super-ovulation induced in infant female rats; assay type: in vivo; conditions: out of 60 21-day old rats; i.p., 1-8 days, 1 or 2 μg daily or twice daily, finished with 5 or 10 μg
# Protocol: 60 pieces of 21-day old infant rats weighing […] were treated with D-Phe^6 -Gln^8 -GnRH in normal saline solution intraperitoneally. The animals, depending on the treatment they were having, were placed into different groups. In the series of treatments lasting 1-8 days, 1 and 2 μg doses, respectively, were administered daily and twice daily. Treatments were finished with 5 and 10 μg doses, respectively.
# After treatment all animals were killed with vapour of ether and their ovaries were removed after the animals died and 24 hours after the last treatment. Evaluation was done visually and from hystological samples. We found several developing follicles in the ovaries of the control animals, but not one of them was of Graf-follicle size, and neither corpur luteum, nor corpus haemorrhagicum could be detected. On the other hand, in all treated groups hormonal effect could be seen which made itself evident by the growing of follicles, by their turning into Graf-follicles, by their ovulation and the forming of regular corpus luteum. Enlarging of the oviduct and the uterus was also evident. […] In the group that received for 4 days 2 μg of GnRH analogue twice daily and on the 4th day the 2 μg treatment was followed by a 10 μg dose, in the ovary of all animals immediately before ovulation softened Graf follicles could be observed in large numbers. […]
smiles,measurement,setting,value
"CC(C)C[C@H](NC(=O)[C@@H](Cc1ccccc1)NC(=O)[C@H](Cc1ccc(O)cc1)NC(=O)[C@H](CO)NC(=O)[C@H](Cc1c[nH]c2ccccc12)NC(=O)[C@H](Cc1c[nH]cn1)NC(=O)[C@@H]1CCC(=O)N1)C(=O)N[C@@H](CCC(N)=O)C(=O)N1CCC[C@H]1C(=O)NCC(N)=O [D-Phe^6, Gln^8 -GnRH analogue, D-Phe^6, Gln^8 -GnRH] ([pGlu]HWSY[dF]LQPG-NH2)",black mutant chinchillas that gave birth within four months,"barren chinchillas; 3 animals barren >2 years, same treatment",all three animals gave birth to young ones
same,chinchillas that gave birth within 4 months,"barren chinchillas; of twenty barren ≥2 years, 10 μg twice daily 3 days i.p., 75 μg on 4th day",12
same,ovulations,infant female pigs,15-36
same,pregnancy during treatment (contraception),"female lion; 50 μg followed by 500 μg, every 3 weeks, April to August, regular copulation",did not become pregnant
same,behaviour and appearance during treatment,female lion; in vivo,showed no irregularity either in its behaviour or in its appearance
same,follicles which started to grow in treated ovary,[1],many hundreds of
same,decrease of motility as a result of deep freezing,bison bull,5%
same,density of ejaculate,"bison bull; 200 μg i.m. twice weekly, two ejaculates combined",4
same,sperm motility,bison bull; two ejaculates combined,55%
same,"regular, normal ova covered with corona radiata found",female blue fox; second female,Six
same,day on which the neck of uterus opened,"female blue fox; second female, 2 μg twice a day",6 days
same,Graf-follicles punctured,"female blue fox; second female, 16 hours after 50 μg",11
same,condition of neck of uterus,"female blue fox; tenth day, same animal",the neck of uterus was open
same,animals that did not react to the treatment,infant female rats,4
